Our source for the EC50 values is patent US20250205350A1, “Antibody-Drug Conjugates and Uses Thereof” (Vivasor, Inc., priority 2022, published 2025).

In one test the test system is SkBr-3 (Her2+). The experiment in a line: In vitro cell viability (CellTiter-Glo) of camptothecin derivatives in SkBr-3. In kind it is cell-based, human. To be noted: 120-hour assay. As to the method:
(§1) The in vitro efficacies of camptothecin derivatives were evaluated using the following human cancer cell lines: SkBr-3 (Her2+) and MDA-MB-468 (HER2−), purchased from the American Type Culture Collection (ATCC; Manassas, VA) and were routinely cultured in DMEM/F-12 medium (Catalog #10-090-CV; Corning) supplemented with 10% fetal bovine serum (FBS; Catalog #MT35011CV; Corning) and 1× Penicillin-Streptomycin (Catalog #30-002-CI; Corning) and maintained at 37° C. with 5% CO2 in a humidified environment.
(§2) Tumor cells were harvested by detachment with cell stripper. Viable cell counts were made by Trypan blue exclusion using a Countess or Countess II automated cell counter. Cell Viability Assay: All cells were harvested and seeded into 384-well white wall clear bottom plates (Catalog #3765; Corning) at a density of 875 cells/well in DMEM/F-12 medium supplemented with 10% fetal bovine serum and 1× Penicillin-Streptomycin (complete growth media). Plates were maintained at 37° C. for 4-6 hours to allow cells to adhere to the plate. The outer wells of plates contained complete growth medium only and were used for background subtraction for the cell viability assay. Working solutions of test articles were prepared at 2× final concentrations with 5-fold serial dilutions in complete growth medium. Cell treatment was performed in triplicates and maintained at 37° C. for 120-hour assay. After treatment, cell viability was determined by CellTiter-Glo 2.0 assay (Catalog #G9243; Promega; Madison, WI, USA) based on the manufacturer's instructions. CellTiter Glo reagent reacts with ATP in metabolically active cells to give a luminescent readout that is directly proportional to the number of viable cells. Briefly, plates were removed from the incubator and equilibrated to room temperature before addition of CellTiter Glo reagent. Luminescence was measured using a Tecan Spark microplate reader (Tecan; Mannedorf, Switzerland).
(§3) For Cytotoxicity assays, raw luminescence data was background subtracted with average luminescence from the outer wells containing medium only and normalized to untreated controls using Excel (Microsoft; […]). Dose-response relationships and EC50 values were determined based on non-linear regression analysis of normalized data fit to a four-parameter logistic equation using GraphPad Prism 8.0.
On the technique in general: ATP-based viability assays read luminescence as a measure of living cells.

The test system of a further test is MDA-MB-468 (HER2−). The experiment in a line: In vitro cell viability (CellTiter-Glo) of camptothecin derivatives in MDA-MB-468. It counts as cell-based, human. To be noted: 120-hour assay. As to the method:
as §1, §2, §3

The next test has as its system HER2-negative MDA-MB-468. The test can be described thus: In vitro cell viability (CellTiter-Glo) of anti-HER2 ADCs in MDA-MB-468. To be noted: Homo sapiens, MDA-MB-468, 120 h, 120-hour assay. In kind it is cell-based. How it is done: (§4) ADCs were evaluated using the following human cancer cell lines: HER2-positive SkBr-3, HER2-positive NCI-N87, and HER2-negative MDA-MB-468, purchased from the American Type Culture Collection (ATCC; Manassas, VA) and were routinely cultured in DMEM/F-12 medium (Catalog #[…]; Corning) supplemented with 10% fetal bovine serum (FBS; Catalog #MT35011CV; Corning) and 1× Penicillin-Streptomycin (Catalog #30-002-CI; Corning) and maintained at 37° C. with 5% CO2 in a humidified environment.
(§5) Tumor cells were harvested by detachment with cell stripper. Viable cell counts were made by Trypan blue exclusion using a Countess or Countess II automated cell counter. […] After treatment, cell viability was determined by CellTiter-Glo 2.0 assay (Catalog #G9243; Promega; Madison, WI, USA) based on the manufacturer's instructions. CellTiter Glo reagent reacts with ATP in metabolically active cells to give a luminescent readout that is directly proportional to the number of viable cells. […] Luminescence was measured using a Tecan Spark microplate reader (Tecan; Mannedorf, Switzerland).
(§6) For Cytotoxicity assays, raw luminescence data was background subtracted with average luminescence from the outer wells containing medium only and normalized to untreated controls using Excel (Microsoft; Albuquerque, NM). […]

A further test concerns HER2-positive SkBr-3. The experiment in a line: In vitro cell viability (CellTiter-Glo) of anti-HER2 ADCs in SkBr-3. It counts as cell-based. To be noted: Homo sapiens, SK-BR-3, 120 h, Table 6; 120-hour assay. As to the method:
as §4, §5, §6

The mark [1] stands for this setting: Homo sapiens, SK-BR-3, 120 h, Table 4A, derivatives as TFA salt, exatecan mesylate.
Where [2] appears, read: Homo sapiens, MDA-MB-468, 120 h, Table 4A, derivatives as TFA salt, exatecan mesylate.
Where [3] appears, read: Homo sapiens, SK-BR-3, 120 h, Table 4B.
Where [4] appears, read: Homo sapiens, MDA-MB-468, 120 h, Table 4B.
[5] abbreviates: Table 4A, derivatives as TFA salt, exatecan mesylate.

What is called EC50 is the concentration that produces a half-maximal response. In the case of `CC[C@]1(O)C(=O)OCc2c1cc1n(c2=O)Cc2c-1nc1cc(F)c(C)c3c1c2[C@H](NC(=O)[C@@H]1CCN1)CC3` [Compound L078-043], the EC50 with SkBr-3 (Her2+) (setting [1]) is 1.8 nM; in the test with MDA-MB-468 (HER2−) (setting [2]) it was 3.7 nM.
In the case of `CC[C@]1(O)C(=O)OCc2c1cc1n(c2=O)Cc2c-1nc1cc(F)c(C)c3c1c2[C@H](NC(=O)[C@@H]1COCCN1)CC3` [Compound L078-048], the results for the concentration giving a half-maximal response (EC50) in the test on SkBr-3 (Her2+) (setting [1]) and in the test with MDA-MB-468 (HER2−) (setting [2]) were 5.6 nM and 5.7 nM, respectively.
As for `CC[C@]1(O)C(=O)OCc2c1cc1n(c2=O)Cc2c-1nc1cc(F)c(C)c3c1c2[C@H](NC(=O)[C@H]1CCCN1)CC3` [Compound L078-065], the EC50 in the test on SkBr-3 (Her2+) (setting [1]) stood at 3.2 nM; in the test with MDA-MB-468 (HER2−) (setting [2]), 6 nM.
`CC[C@]1(O)C(=O)OCc2c1cc1n(c2=O)Cc2c-1nc1cc(F)c(C)c3c1c2[C@H](NC(=O)C1(N)CCOCC1)CC3` [Compound L078-150]: in the test on MDA-MB-468 (HER2−) (Table 4B), the half-maximal effective concentration (EC50) stood at 3.01 nM.
Turning to `CC[C@]1(O)C(=O)OCc2c1cc1n(c2=O)Cc2c-1nc1cc(F)c(C)c3c1c2[C@H](NC(=O)[C@H]1CCN1)CC3` [Compound L078-042], the EC50 in the test with SkBr-3 (Her2+) (setting [1]) was found to be 2.3 nM; with MDA-MB-468 (HER2−) (setting [2]) it was 5.7 nM.
For `CC[C@]1(O)C(=O)OCc2c1cc1n(c2=O)Cc2c-1nc1cc(F)c(C)c3c1c2[C@H](NC(=O)C1(N)COC1)CC3` [Compound L078-088], the results for the EC50 in the test on SkBr-3 (Her2+) (setting [3]) and in the test on MDA-MB-468 (HER2−) (setting [4]) were 2.72 nM and 7.32 nM, respectively.
For the compound `CC[C@]1(O)C(=O)OCc2c1cc1n(c2=O)Cc2c-1nc1cc(F)c(C)c3c1c2[C@H](NC(=O)[C@H]1COCCN1)CC3` [Compound L078-049], the concentration for a half-maximal effect (EC50) in the test on SkBr-3 (Her2+) (setting [1]) turned out to be 2.3 nM; in the test with MDA-MB-468 (HER2−) (setting [2]) it was 4.7 nM.
As to `CC[C@]1(O)C(=O)OCc2c1cc1n(c2=O)Cc2c-1nc1cc(F)c(C)c3c1c2[C@H](NC(=O)C1CCNCC1)CC3` [Compound L078-081], the figures for the half-maximal effective concentration (EC50) in the test with SkBr-3 (Her2+) (setting [5]) and in the test with MDA-MB-468 (HER2−) (setting [5]) were 163 nM and 81.4 nM, respectively.
In the case of `CC[C@]1(O)C(=O)OCc2c1cc1n(c2=O)Cc2c-1nc1cc(F)c(C)c3c1c2[C@H](NC(=O)[C@@H]1CCCN1)CC3` [Compound L078-066], the EC50 with SkBr-3 (Her2+) (setting [1]) turned out to be 3 nM; in the test with MDA-MB-468 (HER2−) (setting [2]) it was 5.6 nM.
Regarding `CC[C@]1(O)C(=O)OCc2c1cc1n(c2=O)Cc2c-1nc1cc(F)c(C)c3c1c2[C@H](NC(=O)[C@@H]1C[C@@H](F)CN1)CC3` [Compound L078-051], the concentration giving a half-maximal response (EC50) is 2.8 nM in the test with SkBr-3 (Her2+) (setting [1]) and 5.4 nM in the test with MDA-MB-468 (HER2−) (setting [2]).
For `CC[C@@]1(O)C(=O)OCc2c1cc1n(c2=O)Cc2c-1nc1cc(F)c(C)c3c1c2[C@@H](N)CC3` [Exatecan, exatecan, reference compound], the EC50 in the test on SkBr-3 (Her2+) (setting [1]) turned out to be 0.69 nM; with MDA-MB-468 (HER2−) (setting [2]) it was 1.1 nM; in the test with MDA-MB-468 (HER2−) (setting [4]), 1.99 nM.
With `CC[C@]1(O)C(=O)OCc2c1cc1n(c2=O)Cc2c-1nc1cc(F)c(C)c3c1c2[C@H](NC(=O)C1CNC1)CC3` [Compound L078-030], the concentration giving a half-maximal response (EC50) in the test with SkBr-3 (Her2+) (setting [1]) is 49.6 nM; in the test on MDA-MB-468 (HER2−) (setting [2]), 57.2 nM.
Take `CC[C@]1(O)C(=O)OCc2c1cc1n(c2=O)Cc2c-1nc1cc(F)c(C)c3c1c2[C@H](NC(=O)c1cccc(N)n1)CC3` [Compound L078-029]: the EC50 was 0.8 nM in the test with SkBr-3 (Her2+) (setting [5]) and 2 nM in the test on MDA-MB-468 (HER2−) (setting [5]).
As to `CC[C@]1(O)C(=O)OCc2c1cc1n(c2=O)Cc2c-1nc1cc(F)c(C)c3c1c2[C@H](NC(=O)C1(N)CCOC1)CC3` (stereo partly drawn) [Compound L078-149], the EC50 in the test with SkBr-3 (Her2+) (setting [3]) is 7.71 nM; in the test on MDA-MB-468 (HER2−) (setting [4]) it was 5.01 nM.
In the case of `CC[C@]1(O)C(=O)OCc2c1cc1n(c2=O)Cc2c-1nc1cc(F)c(C)c3c1c2[C@H](NC(=O)[C@@H]1CNCCO1)CC3` [Compound L078-047], the EC50 was determined as 11 nM in the test with SkBr-3 (Her2+) (setting [1]) and 15.7 nM in the test with MDA-MB-468 (HER2−) (setting [2]).
In the case of `CC[C@]1(O)C(=O)OCc2c1cc1n(c2=O)Cc2c-1nc1cc(F)c(C)c3c1c2[C@H](NC(=O)[C@H]1CNCCO1)CC3` [Compound L078-046], the EC50 came out at 5.5 nM with SkBr-3 (Her2+) (setting [1]) and 5.7 nM in the test with MDA-MB-468 (HER2−) (setting [2]).
Take `CC[C@@]1(O)C(=O)OCc2c1cc1n(c2=O)Cc2c-1nc1cc(F)c(C)c3c1c2[C@@H](NC(=O)CO)CC3` [Dxd, reference compound]: the EC50 in the test on SkBr-3 (Her2+) (setting [1]) was 2.2 nM; with SkBr-3 (Her2+) (setting [3]), 3.66 nM; in the test on HER2-negative MDA-MB-468 (Table 5), 2.55 nM; with HER2-negative MDA-MB-468 (Table 6), 2.57 nM; with MDA-MB-468 (HER2−) (setting [2]), 2 nM; in the test on MDA-MB-468 (HER2−) (setting [4]) it was 3.16 nM. The same compound came in with an EC50 in the test on HER2-positive SkBr-3 of 3.84 nM.
